Organism: Rattus norvegicus
Test: DrugMatrix - Regimen: Daily Repeat
Assay type: toxicity, organism-based, Sprague-Dawley
Set-up: regimen Daily Repeat, gender Male, age 6-8 weeks
Settings: in vivo, po, route oral GAVAGE, vehicle .5 % CMC; for ABSOLUTE EOSINOPHIL / ABSOLUTE LYMPHOCYTE / ABSOLUTE MONOCYTE / ABSOLUTE SEGMENTED NEUTROPHIL / BASOPHIL / EOSINOPHIL / ERYTHROCYTE COUNT / HEMATOCRIT / HEMOGLOBIN / LEUKOCYTE COUNT / LYMPHOCYTE / MEAN CORPUSCULAR HEMOGLOBIN CONCENTRATION / MEAN CORPUSCULAR VOLUME / MONOCYTE / NEUTROPHIL / NUCLEATED RED BLOOD CELLS / PLATELET COUNT / ABSOLUTE BASOPHIL: tissue Blood; for ALANINE AMINOTRANSFERASE / ALBUMIN / ALKALINE PHOSPHATASE / BLOOD UREA NITROGEN / CARBON DIOXIDE / CHLORIDE / CHOLESTEROL / CREATINE PHOSPHOKINASE / CREATININE / GLUCOSE / LACTATE DEHYDROGENASE / LIPASE / PHOSPHORUS / POTASSIUM / SODIUM / TOTAL BILIRUBIN / TOTAL PROTEIN: tissue Plasma
[1] = 60 mg/kg, 120 h, dose level High, time 5 day
[2] = […], 72 h, dose 1.5 mg/Kg, dose level Low, time 3 day
[3] = […], 120 h, dose 1.5 mg/Kg, dose level Low, time 5 day

## CO[C@H]1C[C@@H]2CC[C@@H](C)[C@@](O)(O2)C(=O)C(=O)N2CCCC[C@H]2C(=O)O[C@H]([C@H](C)C[C@@H]2CC[C@@H](O)[C@H](OC)C2)CC(=O)[C@H](C)/C=C(\C)[C@@H](O)[C@@H](OC)C(=O)[C@H](C)C[C@H](C)/C=C/C=C/C=C/1C [SIROLIMUS]
[1]
  ABSOLUTE EOSINOPHIL: 0 CELLS/uL
  ABSOLUTE LYMPHOCYTE: 6680.33 CELLS/uL
  ABSOLUTE MONOCYTE: 49.67 CELLS/uL
  ABSOLUTE SEGMENTED NEUTROPHIL: 670 CELLS/uL
  BASOPHIL: 0%
  EOSINOPHIL: 0%
  ERYTHROCYTE COUNT: 6.63 x10E6/uL
  HEMATOCRIT: 40%
  HEMOGLOBIN: 15.77 G/DL
  LEUKOCYTE COUNT: 7.4 x10E3/uL
  LYMPHOCYTE: 90.33%
  MEAN CORPUSCULAR HEMOGLOBIN CONCENTRATION: 39.4 G/DL
  MEAN CORPUSCULAR VOLUME: 60.43 fL
  MONOCYTE: 0.67%
  NEUTROPHIL: 9%
  NUCLEATED RED BLOOD CELLS: 0 /100WBC
  PLATELET COUNT: 709.33 x10E3/uL
  ALANINE AMINOTRANSFERASE: 49.33 u/L
  ALBUMIN: 4.2 G/DL
  ALKALINE PHOSPHATASE: 311.67 u/L
  BLOOD UREA NITROGEN: 20.67 mg/dL
  CARBON DIOXIDE: 28.33 mmol/L
  CHLORIDE: 99.67 MEQ/L
  CHOLESTEROL: 81.67 mg/dL
  CREATINE PHOSPHOKINASE: 479 u/L
  CREATININE: 0.24 mg/dL
  GLUCOSE: 202.33 mg/dL
  LACTATE DEHYDROGENASE: 231.33 u/L
  LIPASE: 9.67 u/L
  PHOSPHORUS: 10.43 mg/dL
  POTASSIUM: 4.97 MEQ/L
  SODIUM: 145.27 MEQ/L
  TOTAL BILIRUBIN: 0.2 mg/dL
  TOTAL PROTEIN: 6.23 G/DL
[2]
  ABSOLUTE BASOPHIL: 0 CELLS/uL
  ABSOLUTE EOSINOPHIL: 267 CELLS/uL
  ABSOLUTE LYMPHOCYTE: 13791 CELLS/uL
  ABSOLUTE MONOCYTE: 267 CELLS/uL
  ABSOLUTE SEGMENTED NEUTROPHIL: 1575 CELLS/uL
  BASOPHIL: 0%
  EOSINOPHIL: 1.67%
  ERYTHROCYTE COUNT: 5.63 x10E6/uL
  HEMATOCRIT: 36.33%
  HEMOGLOBIN: 13.8 G/DL
  LEUKOCYTE COUNT: 15.9 x10E3/uL
  LYMPHOCYTE: 87%
  MEAN CORPUSCULAR HEMOGLOBIN CONCENTRATION: 38 G/DL
  MEAN CORPUSCULAR VOLUME: 64.5 fL
  MONOCYTE: 1.67%
  NEUTROPHIL: 9.67%
  NUCLEATED RED BLOOD CELLS: 0 /100WBC
  PLATELET COUNT: 1156 x10E3/uL
  ALANINE AMINOTRANSFERASE: 52.33 u/L
  ALBUMIN: 4.23 G/DL
  ALKALINE PHOSPHATASE: 361.33 u/L
  BLOOD UREA NITROGEN: 17.33 mg/dL
  CARBON DIOXIDE: 27.33 mmol/L
  CHLORIDE: 99 MEQ/L
  CHOLESTEROL: 79.33 mg/dL
  CREATINE PHOSPHOKINASE: 205.33 u/L
  CREATININE: 0.21 mg/dL
  GLUCOSE: 162 mg/dL
  LACTATE DEHYDROGENASE: 201.67 u/L
  LIPASE: 10 u/L
  PHOSPHORUS: 12.33 mg/dL
  POTASSIUM: 6.49 MEQ/L
  SODIUM: 144 MEQ/L
  TOTAL BILIRUBIN: 0.2 mg/dL
  TOTAL PROTEIN: 6 G/DL
[3]
  ABSOLUTE BASOPHIL: 0 CELLS/uL
  ABSOLUTE EOSINOPHIL: 0 CELLS/uL
  ABSOLUTE LYMPHOCYTE: 12718.33 CELLS/uL
  ABSOLUTE MONOCYTE: 96 CELLS/uL
  ABSOLUTE SEGMENTED NEUTROPHIL: 1619 CELLS/uL
  BASOPHIL: 0%
  EOSINOPHIL: 0%
  ERYTHROCYTE COUNT: 5.45 x10E6/uL
  HEMATOCRIT: 33.87%
  HEMOGLOBIN: 13.8 G/DL
  LEUKOCYTE COUNT: 14.43 x10E3/uL
  LYMPHOCYTE: 87.67%
  MEAN CORPUSCULAR HEMOGLOBIN CONCENTRATION: 40.77 G/DL
  MEAN CORPUSCULAR VOLUME: 62.2 fL
  MONOCYTE: 0.67%
  NEUTROPHIL: 11.67%
  NUCLEATED RED BLOOD CELLS: 0 /100WBC
  PLATELET COUNT: 1286.33 x10E3/uL
  ALANINE AMINOTRANSFERASE: 92.33 u/L
  ALBUMIN: 3.8 G/DL
  ALKALINE PHOSPHATASE: 328.67 u/L
  BLOOD UREA NITROGEN: 17.33 mg/dL
  CARBON DIOXIDE: 20.33 mmol/L
  CHLORIDE: 99 MEQ/L
  CHOLESTEROL: 66.67 mg/dL
  CREATINE PHOSPHOKINASE: 1089 u/L
  CREATININE: 0.25 mg/dL
  GLUCOSE: 251.33 mg/dL
  LACTATE DEHYDROGENASE: 725.33 u/L
  LIPASE: 11 u/L
  PHOSPHORUS: 14.07 mg/dL
  POTASSIUM: 6.17 MEQ/L
  SODIUM: 142.93 MEQ/L
  TOTAL BILIRUBIN: 0.2 mg/dL
  TOTAL PROTEIN: 5.43 G/DL

Source: ChEMBL document CHEMBL3885881, “DrugMatrix”
